# According to US20160213635A1, “COMPOSITIONS USEFUL IN THE PREVENTION OR TREATMENT OF SKIN CANCER” (GIULIANI S.P.A., priority 2013, published 2016):
# Key:
# NHKs cells [1] = test: Immunofluorescence of phosphorylated histone γH2AX after UVA or UVB irradiation and subsequent treatment with G01; format: cell-based, human; details: post-treatment 90 μM; UVA 10 J/cm^2 or UVB 25 mJ/cm^2; 24 h; vs cells only irradiated
# Method: The NHKs cells were plated in the specific culture medium and maintained in culture for 24±2 h to allow adhesion to the plate. Subsequently, the plates identified as +UVA, +UVA/G01 post, UVB, and +UVB/G01 post were respectively exposed, in irradiation medium, to doses of UVA of 10 J/cm^2 or UVB of 25 mJ/cm^2. The irradiation medium was then replaced with the culture medium containing the compound of the invention G01, in a concentration of 90 μM. Based on preliminary results obtained on a broader time range, a post-treatment time of 24 h was selected, after which the plates were processed for the immunofluorescence determination of the protein expression of the phosphorylated histone γH2AX, whose expression is associated to the amount of DNA damage (double strand breaks). The protein expression of the phosphorylated histone γH2AX after treatment with the compound of the invention G01, or only after irradiation with UVA/UVB, was compared with the expression in the control cells.
# NHKs cells [2] = test: Western Blot assessment (non-cleaved caspase 3) of UV induced apoptosis after pre-treatment with G01; format: cell-based, human; details: pre-treatment 90 μM 24±2 h; UVA 25 J/cm^2, UVB 80 mJ/cm^2; 24 h
# Method: The NHKs cells were plated in the specific culture medium and maintained in culture for 24±2 h to allow adhesion to the plate. Each experimental condition was plated in duplicate. The cells were treated for 24±2 h with the compound G01, in a concentration of 90 μM. Subsequently, the cells identified as +UVA, +G01/UVA, +UVB, and +G01/UVB were respectively exposed, in the irradiation medium, to doses of UVA of 25 J/cm^2 and UVB of 80 mJ/cm^2, while the control plates and those treated only with G01 were maintained in the dark and at room temperature for a period of time equal to the irradiation time. The irradiation medium was then replaced with the culture medium. Based on the preliminary results obtained on a broader time range, a post-treatment time of 24 h was selected, after which the plates were processed for Western Blot protein determination. The protein expression of non-cleaved caspase 3 in each condition tested (treatment with G01 and/or UVA/UVB irradiation) was compared with the expression in the control cells (Ctr).
# [3] = tested on: primary cultures of human keratinocytes, NHKs; test: Cell viability after treatment with G01; format: cell-based; details: eight different concentrations, 48±2 h, three NHKs cultures
# Method: The study is performed on primary cultures of human keratinocytes, NHKs. The cells (three different cultures of keratinocytesNHKs) were plated in the specific culture medium and maintained in culture for 24±2 h to allow adhesion to the plate. The cells were treated with eight different concentrations of the compound of the invention […] under evaluation, diluted in the culture medium, for 48±2 h. The values of cell viability for each concentration tested, resulting from the spectrophotometric reading, were compared with the value obtained from the control.
# NHKs cells [4] = test: ELISA CPDs determination after pre-treatment with G01 and subsequent UVB irradiation; format: cell-based, human; details: pre-treatment 90 μM; UVB 80 mJ/cm^2; 6 h and 24 h
# Method: The NHKs cells were plated in the specific culture medium and maintained in culture for 24±2 h to allow adhesion to the plate. Then, the keratinocytes were treated for 24±2 h with the compound G01, in a concentration of 90 μM. Subsequently, the plates identified as +UVB and +G01/UVB were exposed, in the irradiation medium, to a UVB dose of 80 mJ/cm^2, while the control plates (Ctr) and those treated only with the compound under examination (G01) were maintained in the dark and at room temperature for a period of time equal to the irradiation time. The irradiation medium was then replaced with the culture medium. Based on the preliminary results obtained on a broader time range, post-treatment times of 6 h and 24 h were selected, after which the plates were processed according to the procedure described in the work instruction specific for the DNA extraction. The determination of the pyrimidine cyclobutane dimers, CPDs, was performed using a specific ELISA kit following the procedure described in the user manual.
# NHKs cells [5] = test: Flow cytometric (annexin V) assessment of UV induced apoptosis after pre-treatment with G01; format: cell-based, human; details: pre-treatment 90 μM 24±2 h; UVA 25 J/cm^2, UVB 80 mJ/cm^2; 24 h
# Method: The NHKs cells were plated in the specific culture medium and maintained in culture for 24±2 h to allow adhesion to the plate. Each experimental condition was plated in duplicate. The cells were treated for 24±2 h with G01, in a concentration of 90 μM. Subsequently, the plates identified as +UVA, +G01/UVA, +UVB, and +G01/UVB were respectively exposed, in the irradiation medium, to doses of UVA of 25 J/cm^2 and UVB of 80 mJ/cm^2, while the control plates (Ctr) and those treated only with the compound under examination (G01) were maintained in the dark and at room temperature for a period of time equal to the irradiation time. The irradiation medium was then replaced with the culture medium. Based on the preliminary results obtained on a broader time range, a post-treatment time of 24 h was selected, after which the plates were processed according to the procedure given in the user manual of the specific kit for annexin V flow cytometric analysis (Annexin V), a typical assay to detect the early stages of apoptosis. The positivity for annexin V in each condition tested (treatment with G01 and/or UVA/UVB irradiation) was compared with the positivity in the control cells.
# NHKs cells [6] = test: ELISA CPDs determination after UVB irradiation and subsequent treatment with G01; format: cell-based, human; details: post-treatment 90 μM; UVB 25 mJ/cm^2; 6 h and 24 h
# Method: The NHKs cells were plated in the specific culture medium and maintained in culture for 24±2 h to allow adhesion to the plate. Then, the plates identified as +UVB and +G01/UVB were respectively exposed, in the irradiation medium, to a UVB dose of 25 mJ/cm^2, while the control plates (Ctr) and those treated only with the compound under examination (G01) were maintained in the dark and at room temperature for a period of time equal to the irradiation time. The irradiation medium was then replaced with the culture medium containing the compound G01, in a concentration of 90 μM. Based on the preliminary results obtained on a broader time range, post-treatment times of 6 h and 24 h were selected, after which the plates were processed according to the procedure described in the work instruction specific for the DNA extraction. The CPDs determination was performed using a specific ELISA kit following the procedure described in the user manual.
smiles,measurement,setting,value
"C/C=C/C=C/C=C/C(=O)O [G01, 2,4,6-trans-octatrienoic acid]",fraction of phosphorylated histone γH2AX,NHKs cells [1],significant reduction
same,caspase 3 activation (protein expression of non-cleaved caspase 3),NHKs cells [2],reduce caspase 3 activation
same,cell viability (cellular toxicity) vs control,[3],absence of cellular toxicity
same,CPDs adducts (pyrimidine cyclobutane dimers),NHKs cells [4],promote the removal of CPDs adducts
same,apoptosis (positivity for annexin V) induced by UVA and UVB,NHKs cells [5],reduce the apoptosis
same,CPDs products (pyrimidine cyclobutane dimers),NHKs cells [6],promote the removal of CPDs products
